Assay results taken from patent publication EP0007294A2, “Membrane stabilizing compounds having beta-receptor blocking activity, their preparation, method for treatment of arrhythmic conditions, and pharmaceutical preparations containing same” (priority 1978, dated 1980).
Like-named read-outs stand apart in the source and are kept apart here.

Experiments:
[1] = Alternative chloroform test on mice: ventricular tachycardia inhibition and ataxia; type: in vivo; settings: mouse, in vivo
Method: (§1) In an alternative chloroform test on mice the ventricular tachycardia inhibition by the test compounds are observed. Thereby the test solution is given subcutaneous and the animal is observed for CNS-effects for 20 min. The mouse is put into a chamber with chloroform until it stops breathing (approx 30 sec.). The animal is then secured on a cork-board and ECG is monitored. If the ventricular rythm is less than 520 beats per min., the animal was protected against ventricular tachycardia. Groups of 10 animals were tested for each dose-level'and the ED50-values have been calculated therefrom. During the test the side-effect ataxia (incordination of movements) is observed.
(§2) In Table 5, as shown, the new compounds tested exerted antiarrhythmic effects also in this te-st.

[2] = test system: chloroform induced ventricular tachy-cardia; assay: as above; type: in vivo; settings: Mus musculus; sc.; mice, chloroform; groups of 10 animals per dose-level
Method: as §1, §2

[3] = Conscious dogs with ligation of a coronary artery according to Harris: ectopics and convulsions; type: in vivo; settings: in vivo
Excerpt: (§3) Male beagle dogs, 7-13 kg, undergo two days prior to the test a surgical ligation of a coronary artery. On the day of the test the conscious dog is secured in a canvas sling in a standing position and given increasing doses of the test compounds by intravenous administration. ECG, blood pressure etc are monitored and attention is paid to all CNS-effects. The dogs have almost 100 percent of ectopics prior to administration of the compound to be tested. Effects of the test drug on the frequency of ectopics are calculated from ECG. The accumulative end doses giving 50% and 90% reduction of ectopics as well as the ED50 values which give convulsions (side-effect) are measured and given below in Table 3. The value for convulsions is a mean value for 3-5 dogs.
(§4) x) The value given is the final value in a series of doses 0.5 + 1 + 2 + 4 + 8 mg/kg i.v. giving 50% reduction of ectopics. 30 min interval between doses.
(§5) Table 3: Antiarrythmic effect and CNS-effects of four β-receptor blockers, a membrane stabilizer, and ten new compounds with combined β-blocking and membrane stabilizing effect.

[4] = test system: ectopics; assay: as above; type: in vivo; settings: Canis lupus familiaris, iv.; for ED50: accumulative end dose giving 50% reduction of ectopics, read-out: Conscious dog Harris ligation Ectopics -50%; for ED90: accumulative end dose giving 90% reduction of ectopics, read-out: Conscious dog Harris ligation Ectopics -90%
Excerpt: as §3, §4, §5

[5] = test system: chloroform-induced ventricular arrhythmias; assay: Chloroform-induced ventricular arrhythmias (fibrillation) in mice, intraperitoneal dose; settings: for Number of Animals Protected: protected against CHCl3-induced ventricular fibrillation
Excerpt: Mice were given an intraperitoneal dose of the test compound. Twenty minutes after dose, they were suffocated in chloroform vapor.- When the animals stopped breathing, the chest was opened to inspect for fibrillation. If the heart was not fibrillating, it was prodded.
Signs of CNS toxicity were noted during the 20-minute interval between dosing and challenge.
"Protected" means number of animals protected against CHC13- induced ventricular fibrillation.

[6] = test system: ouabain-induced arrhythmias; assay: Ouabain-induced arrhythmias in anesthetized guinea-pigs; type: in vivo; settings: for A-A EFFECT IN NUMBER OF ANIMALS: animals with antiarrhythmic effect / animals tested; for LOWEST FREQUENCY: frequency of ventricular premature beats after test solution; for ASYSTOLE: time of asystole under continued ouabain; for V-FIB: time of ventricular fibrillation under continued ouabain
Method: Guinea-pigs of either.sex (300-400 g) were anesthetized with urethane 1,4 g/kg i.p. and tracheotomized. ECG, lead II was picked up with needle electrodes and was registered continuously throughout the experiment. Two i.v. catheters were inserted: one for the administration of ouabain, the other for the test solution.
The experimental design for the study of antiarrhythmic activities is schematically shown in the head of Table 2. The arrhythmia was induced by automatic infusion of ouabain, 18 µg/kg/60" every two minutes for twelve minutes and thereafter 9 µg/kg/30" every two minutes throughout the whole experiment and the infusion was not stopped until asystole occurred. As soon as the frequency of ventricular premature beats (VPB) had passed 50 per cent, the test solution was given i.v. (0,2 ml/min) during 2 min. (see head of Table 2).

[7] = dose 100 mg/kg intraperitoneal, 10 treated

For `CC(C)NCC(O)COc1cccc2ccccc12` (centres unmarked) [Propranolol], the TD50 at 20 min ([1]; sc., mice, observed for 20 min, read-out: Ataxia ED50) was greater than 1 mg/kg, the ED50 [2] was 0.6 mg/kg and the TD50 ([3]; iv., conscious dog, mean value for 3-5 dogs, read-out: ED50 Convulsive) was 8 mg/kg. For the same compound, the ED50 [4] was 1 mg/kg, the ED90 [4] was 3 mg/kg and the “Number of Animals Dead” value [5, 7] was 0. For the same compound, the “Number of Animals Convulsive” value ([5]; dose 100 mg/kg intraperitoneal, 10 treated, convulsions within 20 minutes after dosing) was 10, the “Number of Animals LRR” value ([5]; dose 100 mg/kg intraperitoneal, 10 treated, loss of righting reflex) was 1 and the “Number of Animals Protected” value [5, 7] was 10. The “A-A EFFECT IN NUMBER OF ANIMALS” value ([6]; dose 0.03 mg/kg i.v.) was 6/7, the “A-A EFFECT IN NUMBER OF ANIMALS” value ([6]; dose 0.1 mg/kg i.v.) was 6/7 and the “A-A EFFECT IN NUMBER OF ANIMALS” value ([6]; dose 0.3 mg/kg i.v.) was 6/6. The “LOWEST FREQUENCY” value ([6]; dose 0.03 mg/kg i.v.) was 29±5%, the “LOWEST FREQUENCY” value ([6]; dose 0.1 mg/kg i.v.) was 9±5% and the “LOWEST FREQUENCY” value ([6]; dose 0.3 mg/kg i.v.) was 4±2%. The ASYSTOLE ([6]; dose 0.03 mg/kg i.v.) was 29 ± 2 min, the ASYSTOLE ([6]; dose 0.1 mg/kg i.v.) was 35 ± 4 min and the ASYSTOLE ([6]; dose 0.3 mg/kg i.v.) was 32 ± 5 min. For the same compound, the V-FIB ([6]; dose 0.03 mg/kg i.v.) was 21 ± 3 min, the V-FIB ([6]; dose 0.1 mg/kg i.v.) was 30 ± 5 min and the V-FIB ([6]; dose 0.3 mg/kg i.v.) was 27 ± 6 min.
For `COCCc1ccc(OCC(O)CNCCc2ccc(O)cc2)cc1` (centres unmarked) [Ex. 2], the TD50 at 20 min ([1]; sc) was greater than 13 mg/kg, the ED50 [2] was 3 mg/kg and the TD50 ([3]; dog, iv) was 8 mg/kg. The ED50 [4] was 4 mg/kg, the ED90 [4] was 8 mg/kg and the “Number of Animals Dead” value [5, 7] was 0. For the same compound, the “Number of Animals Protected” value [5, 7] was 8, the “Number of Animals Convulsive” value ([5]; mouse, in vivo, ip, 100 mg/kg) was 0 and the “Number of Animals LRR” value ([5]; mouse, in vivo, ip, 100 mg/kg) was 0. The “A-A EFFECT IN NUMBER OF ANIMALS” value ([6]; dose 0.1 mg/kg i.v.) was 7/7, the “A-A EFFECT IN NUMBER OF ANIMALS” value ([6]; dose 0.3 mg/kg i.v.) was 6/6 and the “LOWEST FREQUENCY” value ([6]; dose 0.1 mg/kg i.v.) was 25±7%. For the same compound, the “LOWEST FREQUENCY” value ([6]; dose 0.3 mg/kg i.v.) was 5±2%, the ASYSTOLE ([6]; dose 0.1 mg/kg i.v.) was 27 ± 3 min and the ASYSTOLE ([6]; dose 0.3 mg/kg i.v.) was 35 ± 3 min. The V-FIB ([6]; dose 0.1 mg/kg i.v.) was 20 ± 2 min and the V-FIB ([6]; dose 0.3 mg/kg i.v.) was 29 ± 2 min.
